The nature of the experiment: Cytotoxicity against human HeLaS3 cells by WST1 assay. The format is functional, cell-based. Particulars: HeLa S3. (In general: Tetrazolium assays rely on reduction of a dye to a coloured formazan, in cell work by metabolically active cells.)

Molecules are shown by their SMILES.

On to `CC(C)CC(=O)O[C@@H]1OC=C(CO)[C@H]2C[C@H](OC(=O)/C=C\c3ccc(O)cc3)[C@](O)(CO)[C@@H]12` [LUZONOID B], for which the IC50 (commonly the point on the concentration scale where inhibition reaches its midpoint) came out at 3.11 µM.
In turn, `CC(C)CC(=O)O[C@@H]1OC=C(CO[C@@H]2O[C@H](CO)[C@@H](O)[C@H](O)[C@H]2O)[C@H]2C[C@H](OC(=O)/C=C\c3ccc(O)cc3)[C@](O)(CO)[C@@H]12` [LUZONOSIDE B] came in with an IC50 of 4.67 µM.
Under `COC(=O)C1=CO[C@@H](O[C@@H]2O[C@H](CO)[C@@H](O)[C@H](O)[C@H]2O)[C@@H]2[C@@H](COC(=O)/C=C\c3ccc(O)cc3)CC[C@H]12` [LUZONOSIDE D] stands 100 µM.
Next, `CC(C)CC(=O)O[C@@H]1OC=C(CO)[C@H]2C[C@H](O)[C@](O)(COC(=O)/C=C\c3ccc(O)cc3)[C@@H]12` [LUZONOID D]: 4.56 µM.
Next, `CC(C)CC(=O)O[C@@H]1OC=C(CO)[C@H]2C[C@H](O)[C@](O)(COC(=O)/C=C/c3ccc(O)cc3)[C@@H]12` [LUZONOID C]: 3.57 µM; `O=c1[nH]cc(F)c(=O)[nH]1` [FLUOROURACIL]: 5.4 µM; `COC(=O)C1=CO[C@@H](O[C@@H]2O[C@H](CO)[C@@H](O)[C@H](O)[C@H]2O)[C@@H]2[C@@H](COC(=O)/C=C/c3ccc(O)cc3)CC[C@H]12` [LUZONOSIDE C]: 100 µM.
Compound `CCC(C)CC(=O)O[C@@H]1OC=C(CO)[C@H]2C[C@H](OC(=O)/C=C/c3ccc(O)cc3)[C@](O)(CO)[C@@H]12` (stereo not given in full) [1-O-DEISOVAEROYL-1-O-3-METHYLVALEROYL-LUZONOID A] returned an IC50 of 7.4 µM.
Under `CC(C)CC(=O)O[C@@H]1OC=C(CO)[C@H]2C[C@H](OC(=O)/C=C/c3ccc(O)cc3)[C@](O)(CO)[C@@H]12` [LUZONOID A] stands 2.89 µM.
Under `CC(C)CC(=O)O[C@@H]1OC=C(CO[C@@H]2O[C@H](CO)[C@@H](O)[C@H](O)[C@H]2O)[C@H]2C[C@H](OC(=O)/C=C/c3ccc(O)cc3)[C@](O)(CO)[C@@H]12` [LUZONOSIDE A] stands 3.39 µM.

Values taken from ChEMBL document CHEMBL1148944, “Iridoid glucosides and p-coumaroyl iridoids from Viburnum luzonicum and their cytotoxicity” (J Nat Prod, 2004).
